Laboratory results reported in patent US20220144812A1, “QUINOLINE DERIVATIVES AND THEIR USE FOR THE TREATMENT OF CANCER” (Epizyme, Inc., priority 2019, published 2022).

What was measured:
[1] = tested on: H3K18Ac in HB-CLS-2 cells; test: H3K18AC in-cell western (ICW) assay; format: cell-based; details: 2 h, H3K18Ac in HB-CLS-2 cells, 2 hrs compound incubation; read-out: CREBBP ICW IC50
Outline: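 In-cell western: after methanol fixation, blocking, overnight 4° C anti-H3K18Ac staining, then 800CW secondary plus DRAQ5 for DNA content, integrated intensities were scanned at 800 and 700 nm. Before this, compound exposure lasted 2 hr at 37° C in HB-CLS-2 cells plated 16–24 hours earlier. Values expressed as IC50 (μM).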

[2] = tested on: 647V cells; test: High throughput proliferation (HTP) assay; format: cell-based; details: Homo sapiens, 647-V, 168 h, 647V cells, day 7, CellTiter-Glo; read-out: CREBBP HTP IC50
Outline: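 Proliferation IC50 (micromolar) derived from a 7-day CellTiter-Glo viable-cell readout in 647V cells exposed, in triplicate, to rising compound concentrations; cells grown in DMEM plus 15% heat-inactivated FBS at 37° C under 5% CO2.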

[3] = molecular target: T1, CREBBP (1084-1701) (Homo sapiens, UniProt Q92793); test: Biochemical assay for CREBBP (1084-1701), SAMDI; details: Peptide #233, Acetyl-CoA, SAMDI mass spectrometry, read-out: CREBBP Biochemistry IC50
T1 construct: measured in the following biochemical assay using CREBBP (1084-1701); purchased
Outline: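 Acetyltransferase activity measured by SAMDI mass spectrometry after capture on biochip. Enzyme sat with compound 30 min at RT before acetyl-CoA and biotinylated H3 11-25 (K14R, K23R) peptide were added for 30 min at RT. Formic acid quench, bicarbonate neutralisation; IC50 values reported.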

[4] = molecular target: T2, EP300 (P300(1048-1664)) (Homo sapiens, UniProt Q09472); test: Biochemical assay for EP300, SAMDI; details: P300(1048-1664), Peptide #233, Ac-CoA, SAMDI mass spectrometry; read-out: EP300 Biochemistry IC50
T2 construct: P300(1048-1664)
T2 sequence (Q09472 1048-1664): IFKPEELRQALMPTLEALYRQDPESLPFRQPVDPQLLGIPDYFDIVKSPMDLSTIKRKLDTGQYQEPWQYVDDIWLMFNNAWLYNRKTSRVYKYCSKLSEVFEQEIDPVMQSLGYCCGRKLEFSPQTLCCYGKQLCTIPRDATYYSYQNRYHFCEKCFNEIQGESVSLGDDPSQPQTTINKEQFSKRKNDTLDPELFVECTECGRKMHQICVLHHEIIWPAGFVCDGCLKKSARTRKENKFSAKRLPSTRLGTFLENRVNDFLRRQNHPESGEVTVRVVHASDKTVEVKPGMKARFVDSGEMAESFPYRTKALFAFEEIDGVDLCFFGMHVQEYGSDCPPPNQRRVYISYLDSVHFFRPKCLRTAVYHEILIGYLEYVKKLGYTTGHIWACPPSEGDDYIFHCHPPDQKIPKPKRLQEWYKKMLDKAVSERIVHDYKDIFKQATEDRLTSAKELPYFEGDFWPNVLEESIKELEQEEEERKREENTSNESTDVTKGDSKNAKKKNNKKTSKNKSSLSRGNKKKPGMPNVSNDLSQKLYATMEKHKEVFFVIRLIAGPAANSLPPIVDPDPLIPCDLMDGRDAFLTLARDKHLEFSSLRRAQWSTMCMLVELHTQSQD
Text: The following example describes materials and methods relating to a biochemical assay for EP300. IC50 values (micromolar (μM)) are summarized in Table 1, Table 2, and Table 3 under the column labeled: “EP300 Biochemistry IC50 (micromolar).”

T1 sequence (Q92793 1084-1701): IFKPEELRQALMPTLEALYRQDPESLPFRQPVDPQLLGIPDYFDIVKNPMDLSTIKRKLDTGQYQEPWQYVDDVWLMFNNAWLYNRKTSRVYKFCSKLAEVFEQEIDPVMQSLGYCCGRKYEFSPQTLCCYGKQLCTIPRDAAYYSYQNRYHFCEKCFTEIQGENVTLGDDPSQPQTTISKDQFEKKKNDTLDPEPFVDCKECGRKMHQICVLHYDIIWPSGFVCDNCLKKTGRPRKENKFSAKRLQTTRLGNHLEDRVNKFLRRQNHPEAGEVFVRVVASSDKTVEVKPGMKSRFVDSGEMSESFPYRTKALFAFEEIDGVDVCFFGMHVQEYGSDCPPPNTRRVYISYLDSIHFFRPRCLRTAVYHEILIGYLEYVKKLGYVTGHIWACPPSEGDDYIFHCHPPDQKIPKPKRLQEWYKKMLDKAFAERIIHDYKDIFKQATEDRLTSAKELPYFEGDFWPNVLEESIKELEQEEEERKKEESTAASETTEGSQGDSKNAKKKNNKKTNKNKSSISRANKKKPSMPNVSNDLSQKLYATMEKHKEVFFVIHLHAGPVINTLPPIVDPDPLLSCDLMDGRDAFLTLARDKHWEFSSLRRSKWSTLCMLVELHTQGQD

Compound	IC50 [1]	IC50 [2]	IC50 [3]	IC50 [4]
CCn1ncc(CN(C)C(=O)c2nc(-c3cnc4n[nH]c(NC)c4c3)nc3ccc(Cl)cc23)c1C [Compound 632]	42.1 nM	105 nM	3.2 nM	4.6 nM
CCc1ncc(CN(C)C(=O)c2nc(-c3cc(C(=O)NC)n(C)n3)nc3ccc(C4CC4)cc23)n1C [Compound 633]	227 nM	369 nM	34.3 nM	14.6 nM
CCn1ncc(CN(C)C(=O)c2cc(-c3cc(C(=O)NC)n(C)n3)nc3ccc(C4CC4)cc23)c1C [Compound 635]	52.6 nM	143 nM	24.2 nM	6.6 nM
CCc1ncc(CN(C)C(=O)c2cc(-c3cc(C(=O)NC)n(C)n3)nc3ccc(C4CC4)cc23)n1C [Compound 636]	65.4 nM	132 nM	24.8 nM	5.6 nM
CCc1ncc(CN(C)C(=O)c2cc(-c3ccc(NCCN(C)C)c(C)n3)nc3ccc(COC)cc23)n1C [Compound 637]	420 nM	295 nM	98.7 nM	34.4 nM
CCn1ncc(CN(C)C(=O)c2nc(-c3cc(C(=O)NC)n(C)n3)nc3ccc(C4CC4)cc23)c1C [Compound 638]	124 nM	357 nM	116 nM	66.2 nM
CCn1ncc(C(N(C)C(=O)c2cc(-c3ccc(NCCN(C)C)c(C)n3)nc3ccc(Cl)cc23)C(F)(F)F)c1C (stereo not shown) [Compound 639]	20000 nM	2170 nM	50000 nM	50000 nM
Cc1nc(-c2cc(C(=O)N(C)Cc3cnc(C4CC4)n3C)c3cc(Cl)ccc3n2)ccc1NC1CCN(C)C1 (stereo not shown) [Compound 640]	135 nM	48.7 nM	24.6 nM	9 nM
COCc1ccc2nc(-c3ccc(NCCN(C)C)c(C)n3)cc(C(=O)N(C)Cc3cnc(C4CC4)n3C)c2c1 [Compound 641]	200 nM	111 nM	73.3 nM	22.1 nM
CCc1ncc(CN(C)C(=O)c2cc(-c3ccc(NC4CCN(C)C4)c(C)n3)nc3ccc(Cl)cc23)n1C (stereo not shown) [Compound 642]	86.6 nM	33.4 nM	28.1 nM	9.1 nM
